According to ChEMBL document CHEMBL1938312, “Design and combinatorial synthesis of a novel kinase-focused library using click chemistry-based fragment assembly” (Bioorg Med Chem Lett, 2012):
pIC50: −log10 of the molar value. Active and inactive are the calls of the source. No cut-off for these calls is given here.

What was measured:
[1] = molecular target: 5'-AMP-activated protein kinase subunit gamma-1 (Homo sapiens) (UniProt P54619); test: Inhibition of AMPKgamma1 at 10 uM by colorimetric analysis
5'-AMP-activated protein kinase subunit gamma-1 (Homo sapiens), sequence (P54619 whole entry): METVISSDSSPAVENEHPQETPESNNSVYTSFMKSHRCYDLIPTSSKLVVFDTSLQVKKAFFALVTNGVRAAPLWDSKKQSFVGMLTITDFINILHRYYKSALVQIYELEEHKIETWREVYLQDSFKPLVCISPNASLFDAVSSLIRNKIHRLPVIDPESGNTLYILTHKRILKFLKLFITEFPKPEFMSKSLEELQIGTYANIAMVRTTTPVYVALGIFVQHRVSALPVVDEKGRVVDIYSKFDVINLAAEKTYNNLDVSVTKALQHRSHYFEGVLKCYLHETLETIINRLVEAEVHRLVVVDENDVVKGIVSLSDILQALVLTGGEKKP

[2] = molecular target: T1, Receptor-type tyrosine-protein kinase FLT3 (Homo sapiens, UniProt P36888); test: Inhibition of FLT3 by colorimetric analysis
T1 sequence (P36888 whole entry): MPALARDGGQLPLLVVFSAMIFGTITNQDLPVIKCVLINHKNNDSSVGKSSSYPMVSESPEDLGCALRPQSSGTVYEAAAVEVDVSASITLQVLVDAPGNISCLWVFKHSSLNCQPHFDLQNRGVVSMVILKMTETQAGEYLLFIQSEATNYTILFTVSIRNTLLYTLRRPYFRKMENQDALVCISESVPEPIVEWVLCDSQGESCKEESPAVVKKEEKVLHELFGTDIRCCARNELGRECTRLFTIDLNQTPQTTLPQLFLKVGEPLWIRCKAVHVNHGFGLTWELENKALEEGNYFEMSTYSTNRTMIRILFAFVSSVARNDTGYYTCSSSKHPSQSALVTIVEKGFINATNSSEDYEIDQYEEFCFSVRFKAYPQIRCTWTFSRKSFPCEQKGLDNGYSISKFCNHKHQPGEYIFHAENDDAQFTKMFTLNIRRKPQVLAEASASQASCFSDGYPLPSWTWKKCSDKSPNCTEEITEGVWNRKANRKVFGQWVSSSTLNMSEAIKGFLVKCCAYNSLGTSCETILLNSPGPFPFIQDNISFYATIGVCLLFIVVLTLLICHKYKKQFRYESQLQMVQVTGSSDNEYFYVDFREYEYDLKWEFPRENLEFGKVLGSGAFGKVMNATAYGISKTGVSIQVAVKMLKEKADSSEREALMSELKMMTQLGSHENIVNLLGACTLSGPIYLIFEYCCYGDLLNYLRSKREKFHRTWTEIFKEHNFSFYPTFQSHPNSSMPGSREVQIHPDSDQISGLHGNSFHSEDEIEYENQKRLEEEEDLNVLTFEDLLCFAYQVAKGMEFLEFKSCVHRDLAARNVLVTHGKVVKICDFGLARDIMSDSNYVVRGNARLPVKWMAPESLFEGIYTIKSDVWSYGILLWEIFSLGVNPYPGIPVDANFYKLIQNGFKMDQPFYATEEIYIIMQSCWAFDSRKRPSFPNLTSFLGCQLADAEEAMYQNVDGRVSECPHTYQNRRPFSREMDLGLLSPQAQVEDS

[3] = molecular target: T2, Ephrin type-B receptor 4 (Homo sapiens) (UniProt P54760); test: Inhibition of EPHB4 at 10 uM by colorimetric analysis
T2 sequence (whole entry): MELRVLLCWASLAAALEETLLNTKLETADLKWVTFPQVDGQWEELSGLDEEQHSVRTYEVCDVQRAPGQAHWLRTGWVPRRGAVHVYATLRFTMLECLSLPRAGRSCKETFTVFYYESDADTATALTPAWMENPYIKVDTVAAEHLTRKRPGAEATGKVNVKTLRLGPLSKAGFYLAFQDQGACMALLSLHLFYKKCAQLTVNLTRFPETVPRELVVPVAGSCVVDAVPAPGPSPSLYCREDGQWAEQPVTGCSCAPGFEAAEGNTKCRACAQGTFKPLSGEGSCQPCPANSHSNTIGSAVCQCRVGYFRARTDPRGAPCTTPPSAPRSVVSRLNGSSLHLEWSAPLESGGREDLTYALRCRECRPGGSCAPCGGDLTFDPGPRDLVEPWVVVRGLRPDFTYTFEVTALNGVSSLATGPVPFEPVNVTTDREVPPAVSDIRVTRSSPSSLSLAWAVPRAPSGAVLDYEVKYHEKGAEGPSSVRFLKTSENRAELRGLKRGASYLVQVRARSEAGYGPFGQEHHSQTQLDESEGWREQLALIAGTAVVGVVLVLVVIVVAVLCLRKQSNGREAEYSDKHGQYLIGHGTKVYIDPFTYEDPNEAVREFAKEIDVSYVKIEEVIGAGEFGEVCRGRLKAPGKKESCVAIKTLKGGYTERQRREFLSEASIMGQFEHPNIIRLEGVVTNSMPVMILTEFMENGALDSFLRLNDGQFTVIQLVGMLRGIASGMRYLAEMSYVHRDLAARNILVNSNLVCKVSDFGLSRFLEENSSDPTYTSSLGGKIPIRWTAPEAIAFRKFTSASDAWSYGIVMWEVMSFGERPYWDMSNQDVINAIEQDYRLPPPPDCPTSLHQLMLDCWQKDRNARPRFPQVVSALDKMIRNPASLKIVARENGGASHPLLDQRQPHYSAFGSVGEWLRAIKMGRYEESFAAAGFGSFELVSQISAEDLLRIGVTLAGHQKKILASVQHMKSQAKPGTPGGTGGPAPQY

[4] = molecular target: T3, Serine/threonine-protein kinase Sgk1 (Homo sapiens) (UniProt O00141); test: Inhibition of SGK at 10 uM by colorimetric analysis
T3 sequence (whole entry): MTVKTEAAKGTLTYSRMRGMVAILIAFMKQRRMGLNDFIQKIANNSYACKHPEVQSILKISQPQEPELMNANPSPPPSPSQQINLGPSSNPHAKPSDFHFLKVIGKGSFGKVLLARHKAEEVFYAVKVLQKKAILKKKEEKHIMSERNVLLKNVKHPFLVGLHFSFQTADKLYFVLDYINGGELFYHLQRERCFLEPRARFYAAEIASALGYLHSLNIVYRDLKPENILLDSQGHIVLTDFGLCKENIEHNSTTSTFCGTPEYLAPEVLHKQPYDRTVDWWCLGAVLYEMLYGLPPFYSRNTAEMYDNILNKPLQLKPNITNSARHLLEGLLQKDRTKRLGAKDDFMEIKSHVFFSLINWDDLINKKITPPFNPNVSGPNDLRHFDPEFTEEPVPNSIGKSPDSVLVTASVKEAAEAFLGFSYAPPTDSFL

Row | inhibition [1] | pIC50 [2] | inhibition [3] | inhibition [4] | Structure (SMILES)
1 | Active | 5.36 | inactive | Active | Clc1cccc(-n2nncc2-c2ccncc2)c1
2 | Active | 5.77 | inactive | Active | Clc1ccc(-n2nncc2-c2ccncc2)cc1
3 | Active | 4.98 | inactive | Active | Clc1cccc(-n2cc(-c3ccncc3)nn2)c1
4 | Active | 5.24 | inactive | Active | Clc1ccc(-n2cc(-c3ccncc3)nn2)cc1
